Measurements taken from ChEMBL document CHEMBL3045426, “Synthesis, Antiviral and Antibacterial Activities of Isatin Mannich Bases” (Med Chem Res, 2005).
Values after ≈ are worked out from the molar mass of the structure shown.

Assays:
Vibrio fluvialis = assay: Antimicrobial activity against Vibrio fluvialis after 18 to 20 hr by agar dilution method; assay type: functional
Priestia megaterium = assay: Antimicrobial activity against Bacillus megaterium after 18 to 20 hr by agar dilution method; assay type: functional
[1] = tested on: Human immunodeficiency virus 1; assay: Antiviral activity against Human immunodeficiency virus 1 IIIB infected CEM cells assessed as inhibition of virus-induced cytopathicity after 6 days by XTT assay; assay type: functional, organism-based; details: CCRF-CEM, 144 h
Vibrio cholerae [2] = assay: Antimicrobial activity against Vibrio cholerae 0139 after 18 to 20 hr by agar dilution method; assay type: functional; details: 139
[3] = Cytotoxicity against Homo sapiens (human) MT4 cells after 5 days by MTT assay; assay type: cell-based
[4] = tested on: Mycobacterium tuberculosis; assay: Antimycobacterial activity against Mycobacterium tuberculosis H37Rv ATCC 27294 at 6.25 ug/ml by MABA; assay type: functional
Salmonella typhi = assay: Antimicrobial activity against Salmonella enterica subsp. enterica serovar Typhi after 18 to 20 hr by agar dilution method; assay type: functional
[5] = tested on: Human immunodeficiency virus 1; assay: Antiviral activity against Human immunodeficiency virus 1 IIIB infected MT4 cells assessed as inhibition of virus-induced cytopathicity after 5 days by MTT assay; assay type: functional, organism-based; details: MT4, 120 h
Salmonella enteritidis = assay: Antimicrobial activity against Salmonella enterica subsp. enterica serovar Enteritidis after 18 to 20 hr by agar dilution method; assay type: functional
Vibrio mimicus = assay: Antimicrobial activity against Vibrio mimicus after 18 to 20 hr by agar dilution method; assay type: functional
Plesiomonas = assay: Antimicrobial activity against Plesiomonas after 18 to 20 hr by agar dilution method; assay type: functional
Pseudomonas aeruginosa = assay: Antimicrobial activity against Pseudomonas aeruginosa after 18 to 20 hr by agar dilution method; assay type: functional
[6] = tested on: Human immunodeficiency virus 1; assay: Antiviral activity against Human immunodeficiency virus 1 IIIB infected MT4 cells assessed as protection against viral infection after 5 days by MTT assay; assay type: functional; parameters: concentration or dose not given beside the values
Edwardsiella tarda = assay: Antimicrobial activity against Edwardsiella tarda after 18 to 20 hr by agar dilution method; assay type: functional
Salmonella paratyphi = assay: Antimicrobial activity against Salmonella enterica subsp. enterica serovar Paratyphi A after 18 to 20 hr by agar dilution method; assay type: functional
Shigella sonnei = assay: Antimicrobial activity against Shigella sonnei after 18 to 20 hr by agar dilution method; assay type: functional
Citrobacter freundii = assay: Antimicrobial activity against Citrobacter freundii after 18 to 20 hr by agar dilution method; assay type: functional
Morganella morganii = assay: Antimicrobial activity against Morganella morganii after 18 to 20 hr by agar dilution method; assay type: functional
Hepatitis C virus = assay: Antiviral activity against Hepatitis C virus BM4-5 infected in Huh7 cells assessed as inhibition of viral RNA replication by phosphor screening method; assay type: functional, Hepacivirus hominis, Huh-7
Klebsiella pneumoniae [7] = assay: Antimicrobial activity against Klebsiella pneumoniae after 18 to 20 hr by agar dilution method; assay type: functional
Salmonella typhimurium = assay: Antimicrobial activity against Salmonella enterica subsp. enterica serovar Typhimurium after 18 to 20 hr by agar dilution method; assay type: functional
[8] = Cytotoxicity against Homo sapiens (human) HuH7 cells assessed as cell growth at 50 ug/ml after 3 days by Neutral red assay; assay type: cell-based, Huh-7; details: read-out: Activity
Proteus vulgaris = assay: Antimicrobial activity against Proteus vulgaris after 18 to 20 hr by agar dilution method; assay type: functional
Klebsiella pneumoniae [9] = assay: Antimicrobial activity against Klebsiella pneumoniae subsp. ozaenae after 18 to 20 hr by agar dilution method; assay type: functional
Staphylococcus aureus = assay: Antimicrobial activity against Staphylococcus aureus after 18 to 20 hr by agar dilution method; assay type: functional
Vibrio parahaemolyticus = assay: Antimicrobial activity against Vibrio parahaemolyticus after 18 to 20 hr by agar dilution method; assay type: functional
[10] = Cytotoxicity against Homo sapiens (human) CEM cells after 5 days by MTT assay; assay type: cell-based; details: CEM cells (CCRF-CEM)
Shigella boydii = assay: Antimicrobial activity against Shigella boydii after 18 to 20 hr by agar dilution method; assay type: functional
Escherichia coli = assay: Antimicrobial activity against Escherichia coli NCTC 10418 after 18 to 20 hr by agar dilution method; assay type: functional
Vibrio cholerae [11] = assay: Antimicrobial activity against Vibrio cholerae 01 after 18 to 20 hr by agar dilution method; assay type: functional; details: 1
Enterobacter = assay: Antimicrobial activity against Enterobacter after 18 to 20 hr by agar dilution method; assay type: functional
Proteus mirabilis = assay: Antimicrobial activity against Proteus mirabilis after 18 to 20 hr by agar dilution method; assay type: functional
[12] = tested on: Human immunodeficiency virus 1; assay: Antiviral activity against Human immunodeficiency virus 1 IIIB infected CEM cells assessed as protection against viral infection after 6 days by XTT assay; assay type: functional, CCRF-CEM; parameters: concentration or dose not given beside the values

Structure (SMILES) | MIC (Vibrio fluvialis) [µg/mL] | MIC (Priestia megaterium) [µg/mL] | MIC (Vibrio cholerae [2]) [µg/mL] | MIC (Salmonella typhi) [µg/mL] | MIC (Salmonella enteritidis) [µg/mL] | MIC (Vibrio mimicus) [µg/mL] | MIC (Plesiomonas) [µg/mL] | MIC (Pseudomonas aeruginosa) [µg/mL] | MIC (Edwardsiella tarda) [µg/mL] | MIC (Salmonella paratyphi) [µg/mL] | MIC (Shigella sonnei) [µg/mL] | MIC (Citrobacter freundii) [µg/mL] | MIC (Morganella morganii) [µg/mL] | MIC (Klebsiella pneumoniae [7]) [µg/mL] | MIC (Salmonella typhimurium) [µg/mL] | MIC (Proteus vulgaris) [µg/mL] | MIC (Klebsiella pneumoniae [9]) [µg/mL] | MIC (Staphylococcus aureus) [µg/mL] | MIC (Vibrio parahaemolyticus) [µg/mL] | MIC (Shigella boydii) [µg/mL] | also measured
COc1cc(Cc2cnc(/N=C3\C(=O)N(CN4CCN(c5ccccn5)CC4)c4ccc(Cl)cc43)nc2N)cc(OC)c1OC | 1250 (≈ 1990 µM) | 1250 (≈ 1990 µM) | 312 (≈ 497 µM) | 1250 (≈ 1990 µM) | 1250 (≈ 1990 µM) | 1.22 (≈ 1.94 µM) | 9.76 (≈ 15.5 µM) | 1250 (≈ 1990 µM) | 1250 (≈ 1990 µM) | 312 (≈ 497 µM) | 1250 (≈ 1990 µM) | 625 (≈ 993 µM) | 312 (≈ 497 µM) | 1250 (≈ 1990 µM) | 1250 (≈ 1990 µM) | 625 (≈ 993 µM) | 625 (≈ 993 µM) | 1250 (≈ 1990 µM) | 1.22 (≈ 1.94 µM) | 2.44 (≈ 3.88 µM) | EC50 [1]: > 29.4 µg/mL; CC50 at 120 h [3]: 39.2 µg/mL (≈ 62.3 µM); inhibition at 6.25 µg/mL [4]: 23%; EC50 [5]: > 39.2 µg/mL; Activity [6]: 16.6%; inhibition (INH) (Hepatitis C virus): 89%; viability at 72 h, 50 ug/ml [8]: 101%; CC50 at 120 h [10]: 29.4 µg/mL (≈ 46.7 µM); MIC (Escherichia coli): 1250 µg/mL (≈ 1990 µM); MIC (Vibrio cholerae [11]): 9.76 µg/mL (≈ 15.5 µM); MIC (Enterobacter): 1250 µg/mL (≈ 1990 µM); MIC (Proteus mirabilis): 1250 µg/mL (≈ 1990 µM); Activity [12]: 23.55%
COc1cc(Cc2cnc(/N=C3\C(=O)N(CN4CCC(C)CC4)c4ccc(Cl)cc43)nc2N)cc(OC)c1OC | 1250 (≈ 2210 µM) | 625 (≈ 1110 µM) | 1250 (≈ 2210 µM) | 1250 (≈ 2210 µM) | 1250 (≈ 2210 µM) | 1.22 (≈ 2.16 µM) | 39.1 (≈ 69.1 µM) | 1250 (≈ 2210 µM) | 1250 (≈ 2210 µM) | 312 (≈ 553 µM) | 1250 (≈ 2210 µM) | 312 (≈ 553 µM) | 1250 (≈ 2210 µM) | 1250 (≈ 2210 µM) | 1250 (≈ 2210 µM) | 1250 (≈ 2210 µM) | 625 (≈ 1110 µM) | 1250 (≈ 2210 µM) | 2.44 (≈ 4.32 µM) | 4.88 (≈ 8.64 µM) | EC50 [1]: > 46.3 µg/mL; CC50 at 120 h [3]: 67.4 µg/mL (≈ 119 µM); inhibition at 6.25 µg/mL [4]: 15%; EC50 [5]: > 67.4 µg/mL; Activity [6]: 41.7%; inhibition (INH) (Hepatitis C virus): 81%; viability at 72 h, 50 ug/ml [8]: 108%; CC50 at 120 h [10]: 46.3 µg/mL (≈ 81.9 µM); MIC (Escherichia coli): 1250 µg/mL (≈ 2210 µM); MIC (Vibrio cholerae [11]): 4.88 µg/mL (≈ 8.64 µM); MIC (Enterobacter): 1250 µg/mL (≈ 2210 µM); MIC (Proteus mirabilis): 1250 µg/mL (≈ 2210 µM); Activity [12]: 22.07%
COc1cc(Cc2cnc(/N=C3\C(=O)N(CN4CCN(Cc5ccccc5)CC4)c4ccc(Cl)cc43)nc2N)cc(OC)c1OC | 625 (≈ 973 µM) | 625 (≈ 973 µM) | 625 (≈ 973 µM) | 625 (≈ 973 µM) | 625 (≈ 973 µM) | 2.44 (≈ 3.8 µM) | 39.1 (≈ 60.8 µM) | 1250 (≈ 1950 µM) | 625 (≈ 973 µM) | 625 (≈ 973 µM) | 1250 (≈ 1950 µM) | 625 (≈ 973 µM) | 625 (≈ 973 µM) | 625 (≈ 973 µM) | 625 (≈ 973 µM) | 625 (≈ 973 µM) | 1250 (≈ 1950 µM) | 625 (≈ 973 µM) | 9.76 (≈ 15.2 µM) | 39.1 (≈ 60.8 µM) | EC50 [1]: > 94.7 µg/mL; CC50 at 120 h [3]: 36.1 µg/mL (≈ 56.2 µM); inhibition at 6.25 µg/mL [4]: 50%; EC50 [5]: > 36.1 µg/mL; Activity [6]: 41.8%; inhibition (INH) (Hepatitis C virus): 66%; viability at 72 h, 50 ug/ml [8]: 79%; CC50 at 120 h [10]: 94.7 µg/mL (≈ 147 µM); MIC (Escherichia coli): 625 µg/mL (≈ 973 µM); MIC (Vibrio cholerae [11]): 4.88 µg/mL (≈ 7.6 µM); MIC (Enterobacter): 625 µg/mL (≈ 973 µM); MIC (Proteus mirabilis): 625 µg/mL (≈ 973 µM); Activity [12]: 22.33%
COc1c(N2CCNC(C)C2)c(F)cc2c(=O)c(C(=O)O)cn(C3CC3)c12 (stereo not drawn) [GATIFLOXACIN] | 0.02 (≈ 0.0533 µM) | 0.08 (≈ 0.213 µM) | 0.02 (≈ 0.0533 µM) | 0.02 (≈ 0.0533 µM) | 0.02 (≈ 0.0533 µM) | 0.15 (≈ 0.4 µM) | 2.44 (≈ 6.5 µM) | 0.15 (≈ 0.4 µM) | 0.02 (≈ 0.0533 µM) | 0.02 (≈ 0.0533 µM) | 0.08 (≈ 0.213 µM) | 0.08 (≈ 0.213 µM) | 0.02 (≈ 0.0533 µM) | 0.08 (≈ 0.213 µM) | 0.02 (≈ 0.0533 µM) | 0.02 (≈ 0.0533 µM) | 0.08 (≈ 0.213 µM) | 0.02 (≈ 0.0533 µM) | 9.77 (≈ 26 µM) | 1.22 (≈ 3.25 µM) | MIC (Escherichia coli): 0.02 µg/mL (≈ 0.0533 µM); MIC (Vibrio cholerae [11]): 0.02 µg/mL (≈ 0.0533 µM); MIC (Enterobacter): 0.02 µg/mL (≈ 0.0533 µM); MIC (Proteus mirabilis): 0.02 µg/mL (≈ 0.0533 µM)
